Where a SMILES comes first, the peptide text is derived from it. [ ]: non-standard residue; d: D form. d(pGlu) = O=C1CC[C@H](C(=O)O)N1
How the values were obtained:
Reserpine hypothermy = assay: Reserpine hypothermy-reversing effect on mice; type: in vivo; details: average of 10 animals; for Reserpine hypothermy reversing effect, rectal temperature obs. time 1 h: 1 hour after 20 mg/kg of the tripeptide; for Reserpine hypothermy reversing effect, rectal temperature obs. time 2 h: 2 hours after 20 mg/kg of the tripeptide; for Reserpine hypothermy reversing effect, rectal temperature res.: 16 hours after reserpine 5 mg/kg i.p., before the tripeptide; for Reserpine hypothermy reversing effect, rectal temperature norm.: baseline prior to administration of reserpine
Procedure: (3) Reserpine hypothermy-reversing effect on mice (see B. M. Askew: Life Sci. 2, 725-730/1963/)
The tests were performed on groups of 10 male mice each, weighing 18 to 22 g. Reserpine was administered into the animals in an intraperitoneal dosage of 5 mg/kg, and 16 hours later the animals were treated with 20 mg/kg of TRH or a tripeptide under examination.
The rectal temperature of the animals was measured prior to the administration of reserpine (marked by "norm." in Table 1), 16 hours after the administration of reserpine (marked by "res." in Table 1), furthermore 1 and 2 hours after the administration of the tripeptide (marked by "obs.time" in Table 1). The data listed in Table 1 are the averages of the temperatures observed on the 10 animals.

[1] = tested on: hexobarbital-induced sleeping; assay: Influencing the duration of sleeping caused by hexobarbital; type: in vivo; details: mice, hexobarbital sodium 60 mg/kg i.v., compound 20 mg/kg i.p. 10 min later; control sleeping 38.4 ± 1.36 min
Procedure: (4) Influencing the duration of sleeping caused by hexobarbital The tests were performed on groups of 10 male mice each. The animals were treated intravenously with 60 mg/kg of hexobarbital sodium ([…]®; Bayer), and 10 minutes later 20 mg/kg of TRH or a tripeptide under examination were administered intraperitoneally into the animals. The sleeping times of the animals were recorded, averages were calculated for the individual groups, and the results were expressed as percents related to the control group.

TSH = assay: Hormonal activity (TSH effect) on rats; type: in vivo, rat (male Wistar); details: 20 mg/kg i.v., plasma TSH by radioimmune assay 15 min after treatment, relative activity, TRH = 100%
Procedure: (6) Hormonal activity (TSH effect) on rats
The tests were performed on groups of 7 or 8 male Wistar rats each, weighing 200 g. The animals were treated intravenously with 20 mg/kg of TRH or a tripeptide under examination. The TSH reaction of the animals was evaluated 15 minutes after this treatment, by subjecting the blood plasma to radioimmune assay. The relative activities were calculated by the four-point method using a TPA 101 computer, and the activity of TRH was regarded as 100%.

[2] = tested on: Haloperidol-induced catalepsy; assay: Inhibition of Haloperidol-induced catalepsy on rats; type: in vivo, rat (male Wistar); details: Haloperidol 40 mg/kg s.c., test compound i.v. 120 min later, probit analysis, at the time given
Procedure: (1) Inhibition of Haloperidol-induced catalepsy on rats (see J. Delay and P. Deniker: Compt. Rend. Congr. Med. Alenistes Neurologistes, 19, 497, Luxembourg, 1952)
The tests were performed on male Wistar rats weighing 160 to 180 g.
40 mg/kg of 4-(p-chlorophenyl)-1-(3-/p-fluorobenzoyl/-propyl)-piperidin-4-ol (Haloperi dol) were administered subcutaneously into the animals, and 120 minutes after this treatment the animals were checked for the appearance of catalepsy. The rats were divided into groups of 10 animals each, and treated intravenously with TRH or the new TRH analogues. The animals belonging to the control group received physiological saline. The catalepsy-suspending effects of the individual compounds were determined 15, 30, 60, 90 and 120 minutes after the treatment. The animals that had not changed their position for 30 seconds after placing their fore-paw onto a 7 cm high column were regarded as cataleptic.

[3] = tested on: L-Dopa-induced locomotive activity; assay: Potentiation of locomotive activity induced on mice by L-Dopa; type: in vivo; details: compound 20 mg/kg i.p., percent related to TRH; for Potentiation of the locomotive effect of L-Dopa, % after 30': Pargyline 40 mg/kg i.p., L-Dopa 100 mg/kg i.p., 30 min; for Potentiation of the locomotive effect of L-Dopa, % after 60': 60 min; for Potentiation of the locomotive effect of L-Dopa, % after 90': 90 min
Procedure: (2) Potentiation of locomotive activity induced on mice by L-Dopa (see The Thyroid Axis, Drugs and Behavior, p. 116, A. J. Prage Jr., Raven Press, New York, 1974)
The tests were performed on groups of 15 male mice each, weighing 18 to 22 g.
First, the animals were treated intraperitoneally with 40 mg/kg of N-methyl-N-propargyl-benzylamine (Pargyline), and then an intraperitoneal dosage of 20 mg/kg of TRH or a TRH-analogue was introduced, followed by an intraperitoneal dosage of 100 mg/kg of L-Dopa. The locomotive activity of the animals was recorded 30, 60 and 90 minutes after this treatment, and the level of potentiation was expressed in percents related to the results observed with TRH.

ethanol-induced sleeping = assay: Ethanol narcosis; type: in vivo, CFLP (LATI) mice; details: mice, ethanol 4.5 g i.p., compound 20 mg/kg i.p. 10 min later; control sleeping 46.9 ± 2.17 min
Procedure: (5) Ethanol narcosis (see J. M. Cott et al.: J. Pharm. Exp. Ther. 196, 594/1976/) The tests were performed on groups of 20 CFLP (LATI) mice of both sexes, each weighing 18 to 22 g. 4.5 g of ethanol were introduced intraperitoneally into the animals, and 10 minutes later the animals were treated intraperitoneally with 20 mg/kg of the tripeptide under examination. The sleeping periods of the animals were recorded, averages were calculated for the individual groups, and the results were expressed as percents related to the control group.

| SMILES | Reserpine hypothermy reversing effect, rectal temperature obs. time 1 h (Reserpine hypothermy) | Reserpine hypothermy reversing effect, rectal temperature obs. time 2 h (Reserpine hypothermy) | Reserpine hypothermy reversing effect, rectal temperature res. (Reserpine hypothermy) | Reserpine hypothermy reversing effect, rectal temperature norm. (Reserpine hypothermy) | Decrease of sleeping period (% related to the control animals), Hexobarb. [1] | TSH effect (TSH) | Inhibition of Haloperidol catalepsy ED50 [2] | Potentiation of the locomotive effect of L-Dopa, % after 30' [3] | Potentiation of the locomotive effect of L-Dopa, % after 60' [3] | Potentiation of the locomotive effect of L-Dopa, % after 90' [3] | Decrease of sleeping period (% related to the control animals), Ethanol (ethanol-induced sleeping) |
| --- | --- | --- | --- | --- | --- | --- | --- | --- | --- | --- | --- |
| CC(C)C[C@H](NC(=O)[C@H]1CCC(=O)N1)C(=O)N1CCC[C@H]1C(N)=O [D-Glp Leu Pro, D-Pyroglutamyl-L-leucyl-L-prolinamide] ([d(pGlu)]-Leu-Pro-NH2) | 25.8 °C | 25.6 °C | 27.4 °C | 36.5 °C | 97% | 0% | 70 mg/kg | 54% | 58% | 115% | 54% |
| CC(C)C[C@H](NC(=O)C1CNC(=O)N1)C(=O)N1CCC[C@H]1C(N)=O (stereo partly drawn) [Kic Leu Pro, L-2-Ketoimidazolidine-4-carbonyl-L-leucyl-L-prolinamide] | 27.7 °C | 28.8 °C | 24.1 °C | 35.5 °C | 59% | 0% | 80 mg/kg | 118% | 70% | 98% | 69% |
| CC(C)C[C@H](NC(=O)C1CCCC(=O)N1)C(=O)N1CCC[C@H]1C(N)=O (stereo partly drawn) [Kpc Leu Pro, L-6-ketopiperidine-2-carbonyl-L-leucyl-L-prolinamide] | 32.0 °C | 33.9 °C | 24.5 °C | 36.3 °C | 37% | 2.7% | 23.5 mg/kg | 319% | 80% | 127% | 79% |
| CCC[C@H](NC(=O)C1CCCC(=O)N1)C(=O)N1CCCC[C@H]1C(N)=O (stereo partly drawn) [Kpc Nva HPro, L-6-Ketopiperidine-2-carbonyl-L-norvalyl-L-homoprolinamide] | 26.5 °C | 32.2 °C | 20.7 °C | 36.3 °C | 76% |  | 35.3 mg/kg | 63% | 30% | 108% | 35% |
| CCC[C@H](NC(=O)C1CCCC(=O)N1)C(=O)N1CCC[C@H]1C(N)=O (stereo partly drawn) [Kpc Nva Pro, L-6-Ketopiperidine-2-carbonyl-L-norvalyl-L-prolinamide] | 33.1 °C | 32.5 °C | 23.9 °C | 36.3 °C | 51% | 0% | 10.6 mg/kg | 36% | 45% | 65% | 46% |
| NC(=O)[C@@H]1CCCN1C(=O)[C@H](Cc1c[nH]cn1)NC(=O)[C@@H]1CCC(=O)N1 [TRH, L-pyroglutamyl-L-histidyl-L-prolinamide, reference compound] | 35.5 °C |  |  |  | 56% |  | 80 mg/kg |  | 100% | 100% | 35% |
